From patent publication US11484608B2, “Non-invasive assessment of hepatic mitochondrial metabolism by positional isotopomer NMR tracer analysis (PINTA)” (YALE UNIVERSITY, priority 2017, dated 2022)

Legend:
[1] = system: hepatic mitochondrial fluxes (VPC, VCS); assay: PINTA / ex vivo NMR tracer study in rats infused with [3-^13C]lactate and [3-^3H]glucose (Example 1); conditions: 120 min [3-^13C]lactate infusion, mean ± S.E.M.
Text: Male Sprague-Dawley rats (˜10 weeks of age) were ordered from Charles River (Wilmington, Mass.) at ˜300 g and fed regular chow unless otherwise specified. […] Prior to studies, rats underwent surgery under general isoflurane anesthesia to place polyethylene catheters in the jugular vein and common carotid artery (PE90 and PE50 tubing, respectively; Instech, Plymouth Meeting, Pa.). After 1 week, recovery was verified by confirming that the rats had regained their surgical weight. Unless otherwise specified, all experiments were performed following an overnight fast (16 hrs food withdrawal prior to sacrifice). In both the rodent and human studies, data are represented as the mean of two technical replicates for each subject (i.e. two technical replicates per biological replicate). Sample sizes were selected to give power to detect moderate to large differences between groups (n=5-6 per group), and all animals were included in the final analysis.
The investigator performing the animal studies was not blinded for practical reasons, but the investigators analyzing fluxes were blinded as to the group allocation.
The flux calculations required the following equations using [^13C] glucose positional enrichment in plasma or liver, determined by NMR and GC/MS mass spectrometry. VPC is the rate of pyruvate carboxylase flux as determined from the anaplerotic flow into oxaloacetate (OAA). VCS is defined as the flux of the citrate synthase reaction in the citric acid cycle. […] G2 denotes [m+2] glucose arising from the condensation of two singly-labeled trioses.
GC/MS was used to measure m+1 and m+2 [^13C]glucose enrichment. The total m+1 and m+2 [^13C]glucose enrichment was measured using a pentaacetate derivative: plasma or liver samples were deproteinized using 5 volumes of methanol, dried, and derivatized with 75 μL of 1:1 acetic anhydride:pyridine. After heating to 65° C. for 20 min, the reaction was terminated by adding 25 μL methanol, and m+1 and m+2 (as well as m+3 . . . m+6) were determined by GC/MS (CI mode, m/z 331 [m], 332 [m+1], 333 [m+2], . . . 337 [m+6]). The m+1 and m+2 [^13C] enrichments of the glucose C4C5C6 fragment were determined by generating the aldonitrile pentapropionate derivative: plasma or NMR liver extract samples were dried under N2 gas, and 50 μl hydroxylamine hydrochloride (20 mg/ml in pyridine) were added. The samples were heated at 90° C. for 60 min, then 100 μl propionic anhydride was added, after which the samples were heated at 60° C. for 30 min. Finally, the samples were evaporated under N2 gas, resuspended in ethyl acetate, and the m+1 and m+2 enrichment of the glucose C4C5C6 fragment was measured by GC/MS.
[^13C]alanine enrichment was measured by GC/MS. [^13C] NMR spectroscopy using the BRUKER TOPSPIN® system was utilized to measure relative positional 13C-enrichment of glucose, and combined with the total [^13C]glucose enrichment ([m+1]+2*[m+2]) measured by GC/MS to calculate the positional enrichment of [13C]glucose.
Total [^13C]glutamate enrichment was determined by LC-MS/MS. Approximately 100 mg of liver tissue was weighed out and homogenized in 500 μl ice-cold methanol using a TissueLyser, then centrifuged at 4000 rpm for 10 minutes. The supernatant was then purified by centrifugation (4000 rpm, 10 min) through the PALL NANOSEP® filter (100K) (Port Washington, N.Y.). Glutamate 13C enrichment ([m+1], [m+2]) was then assessed by LC-MS/MS using an AB SCIEX QTRAP 6500 (Framingham, Mass.), equipped with a SHIMADZU ultra-fast liquid chromatography (UFLC) system (Columbia, Md.) and electrospray ionization (ESI) source with negative-ion detection. The measured ion pairs were 146/128 (m0), 147/129 (m+1), and 148/130 (m+2).
Positional enrichment of glucose, glutamate, and alanine was measured by 13C NMR.

[2] = system: primary mouse hepatocytes; assay: In vitro glucose production, VPC and lipolysis in isolated hepatocytes; assay type: cell-based
How it was run: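 Primary mouse hepatocytes were plated and cultured overnight in low-glucose DMEM, with 10% FBS for glucose production or serum-free 0.5% BSA medium for lipolysis. Media were then collected after 8 hr at 37° C for glucose, NEFA and glycerol, and VPC was derived as the PINTA VPC/VEGP ratio × glucose production. Agents were present through the 8-hr assay, and values were normalized to total protein and expressed as fold change vs vehicle.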

[3] = isolated WT hepatocytes, 100 nM glucagon, 8 hr

Substance: glucagon
- VPDH/VCS (%) ([1]; rat liver): 2.7 ± 0.1%
- VPK+ME/VPC+PDH (%) ([1]; rat liver): <2%
- VPC/VEGP (%) ([1]; rats): 65 ± 3%
- increases in NEFA and glycerol production ([2]; WT hepatocytes, glucagon, not InsP3R-I deficient): 60-100%
- increase in VPC flux [2, 3]: two-fold
- increase in glucose production [2, 3]: two-fold
